We go through 31 compounds from PubChem BioAssay (NCI).

Holding throughout (assay): NCI anticancer screen, dose series, 48 h
For test [1], the system named is BT-549 breast.
Test [2] deals with SK-MEL-2 melanoma.
The test system of test [3] is UO-31 renal.
Test [4] concerns NCI-H226 lung.
In test [5] the test system is HL-60(TB) leukemia.
Test [6] relates to HCC-2998 colon.
Test [7] concerns SF-295 CNS.
Test [8] has as its system NCI-H460 lung.
For test [9], the system named is CCRF-CEM leukemia.
Test [10] deals with MDA-N.

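Results reflect a 48-hour exposure of cells in 96-well plates to compound at five concentrations. GI50 marks 50% less growth. The concentration for full growth arrest is given as TGI.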

With `O=C(CNCc1ccccc1)Oc1c(Cl)c(Cl)c(Cl)c(Cl)c1Cl`, the TGI in test [1] turned out to be 44.2 µM; in test [2], 92 µM; in [3], 52.1 µM; in test [4], 83.1 µM; in test [5], 52.4 µM; in [6], 53.9 µM. Further, the TGI in [7] is 92.9 µM; in test [8], greater than 100 µM.

Turning to `O=C(OCc1ccccc1)C(Cc1ccccc1)N(Cc1ccccc1)Cc1ccccc1` (stereo not given), the TGI in test [9], in test [2], in test [3], in test [5], in test [6] and in test [7] was greater than 100 µM in each case. In test [8], the TGI was greater than 100 µM.

As to `CCOC(=O)C(C)c1nc2c(Cl)c3ncccc3cc2[nH]c1=O` (stereo not given), the TGI is greater than 100 µM in test [1]; 68.4 µM in [9]; greater than 100 µM in test [2]; greater than 100 µM in test [3]; greater than 100 µM in test [4]; greater than 100 µM in test [10]. Also, in test [7], the TGI was greater than 100 µM.

In the case of `COC(=O)[C@H](Cc1ccccc1)NC(=O)c1ccc(CNC(=O)/C=C/c2cccc(Oc3ccccc3)c2)cc1`, the TGI in [1] is greater than 100 µM; in [9], greater than 100 µM; in test [2] it was 27.7 µM; in [3], greater than 100 µM; in [4], greater than 100 µM; in test [10] it was 15.3 µM. For the same compound, the TGI in test [6] was 89.7 µM; in test [7], greater than 100 µM; in test [8], greater than 100 µM.

Regarding `COc1cc(CC(C)N)ccc1O` (stereo not given), the TGI in [9] was greater than 31.6 µM; in [2] it was greater than 100 µM; in test [3], greater than 100 µM; in test [4], greater than 100 µM; in test [5], greater than 100 µM; in test [10], greater than 100 µM. The TGI in [6], in [7] and in test [8] was greater than 100 µM each time.

Regarding `CCCCC/C(C=O)=C\c1ccccc1`, the TGI in test [1], in test [9], in test [2], in [3], in [4] and in test [5] was greater than 100 µM each time. Also, the TGI in [6], in test [7] and in [8] was greater than 100 µM throughout.

Take `O=C([CH-]C(=O)c1ccccc1)c1ccccc1.O=C([CH-]C(=O)c1ccccc1)c1ccccc1.[O]=[U+2]=[O]`: in test [7], the GI50 was 1.81 µM and the TGI was found to be 4.29 µM. Also, in [8], the GI50 was 1.99 µM and the TGI is 13.1 µM.

`COc1ccc(N=NC(=Nc2ccc(F)cc2)c2ccc(N(CCC#N)CCC#N)cc2)cc1`: the TGI in test [1] was 70.8 µM; in test [9], greater than 100 µM; in test [3], greater than 100 µM; in test [4], greater than 100 µM; in [10] it was greater than 100 µM; in test [6], 51.5 µM. Besides, the TGI was greater than 100 µM in test [7] and 52 µM in test [8].

`Cc1ccc(-c2c(C#N)c(-c3ccc([N+](=O)[O-])cc3)c(C#N)c(=O)n2NS(=O)(=O)c2ccccc2)cc1`: the TGI in test [1] is 94.9 µM; in test [9] it was 58.3 µM; in [2], greater than 100 µM; in [4], greater than 100 µM; in [10] it was greater than 100 µM; in test [6], greater than 100 µM. The TGI in [7] and in test [8] was greater than 100 µM each time.

Take `CC1(C)[C@@H](Cn2cnc3c(Cl)nc(N)nc32)CC[C@@]1(C)CO`: the TGI in test [9] was greater than 100 µM; in test [2], 35.1 µM; in test [3], 15 µM; in test [4] it was 91.7 µM; in [10], 91.7 µM; in test [6] it was 48.7 µM. Also, the TGI in [7] was greater than 100 µM.

Regarding `CN1COCc2cc3cc4c(cc3nc21)OCCO4`, the TGI in test [1], in test [9], in test [2], in [4], in test [10] and in test [6] was greater than 100 µM in each case. In addition, the TGI in test [7] and in test [8] was greater than 100 µM each time.

Consider `CCCCN(CCCC)C(=C(C(Cl)=C(Cl)Cl)[N+](=O)[O-])N(CCCC)CCCC`, for which the TGI in test [1], in test [2], in test [3], in test [4], in test [10] and in [7] was greater than 100 µM each time. In addition, the TGI in test [8] is greater than 100 µM.

Turning to `COc1ccc2c(c1)CCN=C2c1ccccc1CCCCl`, the TGI in [1] was greater than 100 µM; in test [9], greater than 100 µM; in test [2], greater than 100 µM; in test [3] it was 26.7 µM; in test [4], greater than 100 µM; in [5], greater than 100 µM. Moreover, the TGI in [6] is 24.9 µM; in test [7] it was greater than 100 µM; in test [8], 28.5 µM.

Regarding `c1csc(-c2c3ccc(=[N+]4CCCCC4)cc-3oc3cc(N4CCCCC4)ccc23)c1`, the GI50 in [1] is 0.135 µM; in [9], 0.0503 µM; in test [3] it was 0.136 µM; in test [5], 0.145 µM; in test [6] it was 0.0391 µM. The TGI is 0.32 µM in [1]; 1.07 µM in [9]; 0.277 µM in test [3]; 0.547 µM in [5]; 0.14 µM in [6].

`C=C(C)[C@@]1(O[Si](C)(C)C)CCCC[C@@H]1CC(Sc1ccccc1)Sc1ccccc1`: the TGI in [9] was determined as 36.2 µM; in [2], 31 µM; in test [3], 27.3 µM; in test [4], 32.2 µM; in test [5] it was 40.8 µM; in [10] it was 32.7 µM. Moreover, the TGI worked out at 29.8 µM in [6], 25.5 µM in [7] and 29.6 µM in test [8].

Regarding `Cc1c2ccncc2c(C)c2c1[nH]c1ccccc12`, the GI50 in test [1] was 1.56 µM. For the same compound, the TGI was 3.34 µM in test [1]; 4.44 µM in [9]; 6.79 µM in test [2]; 4.62 µM in test [3]; 5.46 µM in test [4]; 6.78 µM in [5]. For the same compound, the TGI came to 4.87 µM in [6], 2 µM in test [7] and 1.32 µM in test [8].

On to `O=C(O)c1c2c(cc3c1CC1(Cc4ccccc4C1=O)C3)CCC2` (stereo not given), for which the TGI is greater than 93.4 µM in test [1]; 33.9 µM in test [9]; 55.1 µM in test [2]; greater than 100 µM in [3]; greater than 85.8 µM in [4]; 14.9 µM in test [5]. The figures for the TGI in test [6], in test [7] and in test [8] were 13.4 µM, greater than 100 µM and greater than 100 µM, respectively.

Take `CCN1C(=O)N(CC)C2Nn3c(s/c(=C4\C(=O)N(C)c5ccccc54)c3=O)=NC21` (stereo not given): the GI50 in test [9] is 3.3 µM; in test [3], 2.82 µM; in test [4], greater than 100 µM; in [7], 2.83 µM; in [8], 3.35 µM. Besides, the TGI in test [9], in test [3], in test [4], in test [7] and in [8] was greater than 100 µM throughout.

Turning to `O=C(CCCN1CCC2(CC1)C(=NC1CCCCC1)NC(=O)N2c1ccccc1)c1ccc(F)cc1`, the TGI in [9] came out at 64.4 µM; in test [2] it was 31.9 µM; in test [4] it was 32.3 µM; in test [5] it was 57.4 µM; in test [10] it was 34.9 µM; in test [6], 37.7 µM. In addition, the values for the TGI in test [7] and in [8] were 39.2 µM and 54.5 µM, respectively.

As for `C[C@]12CC[C@H](O)C=C1CC[C@@H]1[C@@H]2CC[C@]2(C)C(c3ccc(=O)oc3)CC[C@]12O` (stereo not given in full), the TGI in test [9] was 0.151 µM; in test [2], 0.0647 µM; in test [3] it was 0.041 µM; in [4], 0.154 µM; in test [5] it was less than 0.0125 µM; in [6] it was 0.208 µM. In addition, the figures for the TGI in test [7] and in test [8] were 0.0289 µM and 0.0156 µM, respectively.

As to `O=C1CCCc2cc3c(cc21)CC1(C3)Cc2ccc3c(c2C1)C(=O)CCC3` (stereo not given), the TGI in [9] was 58.8 µM; in test [2], 88.9 µM; in test [3], greater than 100 µM; in test [4] it was 90.1 µM; in [5] it was 27.7 µM; in [10], 26.1 µM. For the same compound, the TGI in [6], in [7] and in [8] was greater than 100 µM in each case.

For `O=C(Nc1ccc(-n2cc(-c3ccncc3)c(-c3ccc(O)c(Cl)c3)n2)cc1)Nc1cccc(Cl)c1Cl`, the GI50 is 2.47 µM in test [9]; 7.18 µM in test [2]; 6.67 µM in test [3]; greater than 32.5 µM in test [4]; 7.49 µM in test [5]; 18.9 µM in [6]. For the same compound, the results for the GI50 in [7] and in test [8] were 6.13 µM and 5.74 µM, respectively. The TGI in test [9], in test [2], in test [3], in test [4], in test [5] and in test [6] was greater than 32.5 µM in each case. The TGI in test [7] and in [8] was greater than 32.5 µM throughout.

As for `CC(C)(C)C(=O)C(Cc1ccccc1)C(=O)C(C)(C)C`, the TGI in [9], in test [2], in test [3], in test [4], in [5] and in [10] was greater than 100 µM throughout. Moreover, the TGI in [6], in test [7] and in test [8] was greater than 100 µM in each case.

On to `NC(=O)c1ncn2c1NC(=O)CC2`, for which the TGI in test [9], in [2], in [3], in test [4], in [5] and in test [6] was greater than 100 µM throughout. Besides, the TGI in [7] and in test [8] was greater than 100 µM each time.

With `CC1=CC(=O)CC2(C)CCC(C(C)CC(=O)CC(C)C)CC12` (stereo not given), the TGI is 61.2 µM in [9]; greater than 100 µM in test [2]; greater than 100 µM in test [3]; 63.2 µM in test [4]; 43.2 µM in test [5]; greater than 100 µM in test [7]. Also, in test [8], the TGI is greater than 100 µM.

Regarding `COc1ccccc1N1CCN(CCCNC(=O)c2cc(Cl)c(N)c(Cl)c2)CC1`, the TGI in [9] is greater than 100 µM; in test [3], 58.1 µM; in [4], 98 µM; in test [5] it was 55.8 µM; in test [6], 41.6 µM; in [7], 34.1 µM. In test [8], the TGI is greater than 100 µM.

As to `COc1cc(CNc2nc3cc(C(F)(F)F)ccc3nc2-c2ccccc2)cc(OC)c1OC`, the TGI in [9] was greater than 100 µM; in test [3] it was greater than 100 µM; in test [4], greater than 100 µM; in test [5], 70 µM; in test [10], greater than 100 µM; in test [6], 52.4 µM. The TGI in test [7] and in [8] was greater than 100 µM throughout.

As for `CCOC(=O)[C@@H]1ON2O[C@@H](OC3CCCC3(c3ccccc3)c3ccccc3)C[C@H]3OC(=O)[C@@H]1C32` (stereo not given in full), the TGI in [9] was 64.8 µM; in test [3] it was 41.1 µM; in [4], greater than 100 µM; in test [5], 60.9 µM; in [10], 67.6 µM; in test [6], greater than 100 µM. The TGI in test [7] and in test [8] was greater than 100 µM each time.

Turning to `COc1cc2c(c(O)c1O)-c1ccc(OC)c(=O)cc1C(NC(C)=O)CC2` (stereo not given), the TGI is 37.1 µM in [9]; 16.5 µM in [2]; greater than 100 µM in test [3]; 92.7 µM in [4]; 5.29 µM in [5]; greater than 78.1 µM in test [6]. Besides, the TGI was 41.4 µM in [7] and 87.7 µM in test [8].

On to `Clc1ccc(Cl)c(SCCCN2CCNCC2)c1`, for which the TGI in test [1] was determined as 33.6 µM; in [9] it was 50.5 µM; in test [3], 30.1 µM; in test [4], 43.4 µM; in test [5], 40.3 µM; in test [6], 12.8 µM. The results for the TGI in test [7] and in [8] were 37.1 µM and 42.1 µM, respectively.

`O=C(CCc1cccc(O)c1)NCCCNC(=O)CCc1cccc(O)c1`: the TGI in test [1], in test [9], in test [2], in test [3], in test [10] and in test [6] was greater than 100 µM throughout. Further, the TGI in test [7] and in test [8] was greater than 100 µM in each case.
